Drawing on PubChem BioAssay AID2060912 (Molecular Pharmacology Branch, DTP, NCI, 2025), this text covers IC50 and viability, T/C for two compounds.

The assay concerns HUVEC/MSC spheroids viability. Kind of assay: Human HUVEC/MSC cell line growth inhibition [KRAS2].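 For viability, T/C: percent of DMSO vehicle control luminescence so 100% = untreated viability.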 The note with it: for viability, T/C: stronger effect = lower value. The procedure, abridged: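 HUVEC + hMSC stromal spheroids only, no malignant cells; 37 °C, 5% CO2. Drugs singly and in pairs, half-log series down from clinical Cmax (max 10 microM if Cmax undetermined).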

The structures appear in SMILES notation.

The IC50 is the concentration that inhibits the measured activity by half. A word on the viability, T/C: it is the ratio of treated to control. As to `CC(C)NCC(C(=O)N1CCN(c2ncnc3c2C(C)CC3O)CC1)c1ccc(Cl)cc1` (stereo unspecified) + C=CC(=O)N1CCN(c2nc(=O)n(-c3c(C)ccnc3C(C)C)c3nc(-c4c(O)cccc4F)c(F)cc23)C(C)C1, the IC50 is, setting by setting: (curve of first compound, second compound 0.0316 µM) > 10 µM; (curve of first compound, second compound 0.1 µM) > 10 µM; (curve of first compound, second compound 0.316 µM) > 10 µM; (curve of first compound, second compound 1 µM) > 10 µM; (curve of first compound, second compound 3.16 µM) > 10 µM; (curve of first compound, second compound 10 µM) > 10 µM. In addition, the viability, T/C is, setting by setting: (second compound 0.0316 µM, first compound 0.0316 µM) 87.5%; (second compound 0.0316 µM, first compound 0.1 µM) 93.7%; (second compound 0.0316 µM, first compound 0.316 µM) 97.1%; (second compound 0.0316 µM, first compound 1 µM) 77.7%; (second compound 0.0316 µM, first compound 3.16 µM) 52.4%; (second compound 0.0316 µM, first compound 10 µM) 53.6%. Also, the viability, T/C (second compound 0.1 µM, first compound 0.0316 µM) is 92.4%; the viability, T/C (second compound 0.1 µM, first compound 0.1 µM) was 104%; the viability, T/C (second compound 0.1 µM, first compound 0.316 µM) was 85.8%; the viability, T/C (second compound 0.1 µM, first compound 1 µM) is 76.1%; the viability, T/C (second compound 0.1 µM, first compound 3.16 µM) was 54.9%; the viability, T/C (second compound 0.1 µM, first compound 10 µM) was 64.9%. In addition, the viability, T/C reads like this: (second compound 0.316 µM, first compound 0.0316 µM) 98.7%; (second compound 0.316 µM, first compound 0.1 µM) 102%; (second compound 0.316 µM, first compound 0.316 µM) 82.2%; (second compound 0.316 µM, first compound 1 µM) 65.8%; (second compound 0.316 µM, first compound 3.16 µM) 59.4%; (second compound 0.316 µM, first compound 10 µM) 63.1%. Also, the viability, T/C reads like this: (second compound 1 µM, first compound 0.0316 µM) 105%; (second compound 1 µM, first compound 0.1 µM) 99.4%; (second compound 1 µM, first compound 0.316 µM) 96.4%; (second compound 1 µM, first compound 1 µM) 71.3%; (second compound 1 µM, first compound 3.16 µM) 58%; (second compound 1 µM, first compound 10 µM) 68.1%. Further, the viability, T/C was 96.8% (second compound 3.16 µM, first compound 0.0316 µM); 124% (second compound 3.16 µM, first compound 0.1 µM); 86.6% (second compound 3.16 µM, first compound 0.316 µM); 84.6% (second compound 3.16 µM, first compound 1 µM); 62.9% (second compound 3.16 µM, first compound 3.16 µM); 68.9% (second compound 3.16 µM, first compound 10 µM). Further, the viability, T/C (second compound 10 µM, first compound 0.0316 µM) was 110%; the viability, T/C (second compound 10 µM, first compound 0.1 µM) is 119%; the viability, T/C (second compound 10 µM, first compound 0.316 µM) was 102%; the viability, T/C (second compound 10 µM, first compound 1 µM) was 64.5%; the viability, T/C (second compound 10 µM, first compound 3.16 µM) is 65%; the viability, T/C (second compound 10 µM, first compound 10 µM) was 47.2%.

As for `O=C(c1cc(Cc2n[nH]c(=O)c3ccccc23)ccc1F)N1CCN(C(=O)C2CC2)CC1`, the viability, T/C runs as follows: (compound 0.316 µM) 90.8% [middle of 5 runs]; (compound 1 µM) 89.3% [middle of 5 runs]; (compound 10 µM) 95.3% [middle of 5 runs]. For the same compound, the IC50 (curve of compound) is > 10 µM.
